This note sets out measurements from patent US20230113802A1, “COMPOSITION AND METHOD TO PREPARE LONG-ACTING INJECTABLE SUSPENSION CONTAINING MULTIPLE CANCER DRUGS” (University of Washington, priority 2020, published 2023).

The test system of one series is MOLT-4 cells. Briefly: AlamarBlue cell growth inhibition, MOLT-4. The following applies: Homo sapiens, 120 h. In kind it is cell-based. As for the experimental part:
K-562 cells (human leukemia) were purchased from ATCC (Manassas, USA). Additional human leukemic cell lines, MOLT-4 and HL-60, were a generous gift from Carrie Cummings at Fred Hutchinson Cancer Research Center (Seattle, USA). All cells were cultured in Gibco RPMI medium 1640 with Gibco 1% 100×Antibiotic-Antimycotic (Thermo Fisher Scientific, Waltham, USA) and 10% fetal bovine serum. Cells were selected for their different protein expression levels of Bruton's Tyrosine Kinase (BTK) and B Cell Lymphoma 2 (Bcl-2); HL-60 cells express both BTK and Bcl-2, while K-562 and MOLT-4 cells only express BTK and Bcl-2, respectively.
Each cell line was seeded separately into Costar® Black 96-well Assay Plates (Corning USA). Within 1 hr, varying concentrations of individual free drug (ABT-199 or BGB-3111), a combination of both free drugs (w/w 1:1), or a combination of drugs within DcNP's were added to the cells. Following a 5-day incubation, growth of treated cells was compared to untreated cells, quantified using an AlamarBlue Cell Viability Assay (Thermo Fisher Scientific, Waltham, USA) with a PerkinElmer 1420 Multilabel Counter plate reader. Prism graphing software (GraphPad) was used to analyze the absorbance data and to assess relative cell growth.
The effects of DcNP formulation on the effectiveness of ABT-199 and BGB-3111 to inhibit cells that express Bcl-2 and BTK targets is shown in Table 6. Three immortalized human cell lines were selected based on their expression of Bcl-2 (B-cell lymphoma 2; target of venetoclax) and BTK (Bruton's tyrosine kinase; target of zanubrutinib). Cell lines were seeded in 96-well plates at 75,000 cells per well. In separate sets of wells, venetoclax and zanubrutinib were incubated with the cells for 5 days individually as free drug, together as free drug, and together as the drug combination nanoformulation. An AlamarBlue assay was performed to determine relative inhibition of cell growth due to drug presence.

The test system of a further series is K-562 cells. The experiment in a line: Leukemic cell uptake of free versus DcNP-associated drug, K-562. Format: cell-based, human. How it is done:
FIGS. 13A-13D are a series of graphs showing the intracellular drug concentrations following incubation with free or DcNP-bound drug. Three leukemic cell lines were incubated with either free or DcNP-bound drug over four hours, and intracellular drug concentration was measured via LC-MS/MS. Both free drugs show relatively little drug uptake compared to the DcNP formulation. Free drug concentrations are roughly a quarter of the DcNP drug concentrations.
To quantify drug concentrations (both DcNP-bound and free drug), an extraction protocol was established to quantify venetoclax and zanubrutinib. In short, drug was solubilized by diluting the sample into ethyl acetate, liberating it from either the DcNP lipid matrix, mouse plasma, or both. Following centrifugation to remove organic material, the samples were dried with nitrogen gas, reconstituted in acetonitrile, and loaded onto an LC-MS/MS. Drug concentrations were quantified by comparing sample data with standard curves prepared from untreated mouse plasma spiked with known amounts of drug.
Separations were carried out on a Synergi column (100×2.0 mm) (Phenomenex, Torrance, USA). A C8 guard column (4.0×2.0 mm) was used (Phenomenex, USA). The separations were done under ambient temperature, and the flow rate was set to 0.55 ml/min. The mobile phase for the separations consisted of buffers A (water with 20 mM ammonium acetate) and B (acetonitrile). The single mobile phase ran for five minutes, and it consisted of 25% buffer A and 75% buffer B.
HL-60 cells were cultured, counted, and aliquoted into multiple 1.5 mL Eppendorf tubes. A free drug solution of ABT-199 and BGB-3111 (1:1 w/w) was added to half of the tubes, while a DcNP solution of identical drug concentrations was added to the second half of tubes. The cells in the tubes were then allowed to incubate normally. At preselected time points, one incubation tube from each group was removed from the incubator, and the cells inside were washed twice with media to remove external drug and DcNP's. Cells were then lysed with acetonitrile, and drug concentrations were quantified according to the aforementioned extraction and LC-MS/MS protocol.

As a reminder, the IC50 is the concentration needed to halve the response being measured. In general, EC50 refers to the concentration giving half of the maximal effect. With `CC1(C)CCC(CN2CCN(c3ccc(C(=O)NS(=O)(=O)c4ccc(NCC5CCOCC5)c([N+](=O)[O-])c4)c(Oc4cnc5[nH]ccc5c4)c3)CC2)=C(c2ccc(Cl)cc2)C1` [Venetoclax, 4-[4-[[2-(4-chlorophenyl)-4,4-dimethylcyclohexen-1-yl]methyl]piperazin-1-yl]-N-[3-nitro-4-(oxan-4-ylmethylamino)phenyl]sulfonyl-2-(1H-pyrrolo[2,3-b]pyridin-5-yloxy)benzamide], the IC50 in the series on MOLT-4 cells (MOLT-4, five days, read-out: IC50 (sensitivity)) was determined as 1.96 µg/mL. The EC50 with MOLT-4 cells (Molt-4 (Bcl-2 +, BTK −), 5 days, read-out: Inhibitory effects (EC50)) stood at 2 µg/mL. Besides, the “peak intracellular drug concentration” value with K-562 cells (K-562, incubation with DcNP's) is given as 647 ng/million cells; with K-562 cells (K-562, incubation with free drug) it was 192 ng/million cells.
